Test: Tacrolimus tissue pharmacokinetics, oral versus intra-cecal ingestible device delivery
Type: in vivo, Yorkshire-Cross farm swine
Conditions: swine; intra-cecally (ingestible device) vs orally administered; FIG. 76
Description: No further randomization procedure was employed.
Animals in Group 1 received an ingestible device containing 0.8 mL of vehicle solution (80% alcohol, 20% HCO-60). Animals in Group 2 received orally […] liquid formulation of tacrolimus at 4 mg/0.8 mL per animal (Prograf: 5 mg/mL). Animals in Group 3 received intra-cecally an ingestible device containing tacrolimus at 1 mg in 0.8 mL per ingestible device. Animals in Group 4 received intra-cecally an ingestible device containing tacrolimus at 2 mg in 0.8 mL per ingestible device. Animals in Group 5 received intra-cecally an ingestible device containing tacrolimus at 4 mg in 0.8 mL per ingestible device. To control for potential confounding effects of the surgery, all groups fast on Day −11 at least 24 hr before being subjected to anesthesia followed by surgical placements of a cecal port by a veterinary surgeon at Day −10. […]
For tissue necropsy, small intestine fluid and cecal fluid were collected separately from all the animals into two separate square plastic bottles, and stored at −20° C. The length and diameter of the cecum and the colon was measured from one animal in each group and recorded for reference. […] All samples were weighed, and the tissue sample weights were recorded. […] Around 3 grams of the total punched sample were collected into a pre-weighed 15-mL conical tube, and the tissue weight was recorded. […]

C=CC[C@@H]1/C=C(\C)C[C@H](C)C[C@H](OC)[C@H]2O[C@@](O)(C(=O)C(=O)N3CCCC[C@H]3C(=O)O[C@H](/C(C)=C/[C@@H]3CC[C@@H](O)[C@H](OC)C3)[C@H](C)[C@@H](O)CC1=O)[C@H](C)C[C@@H]2OC [tacrolimus]
mean concentration of tacrolimus in the cecum tissue and the proximate colon tissue: higher

Reference: patent US20190343425A1, “TREATMENT OF A DISEASE OF THE GASTROINTESTINAL TRACT WITH A TNF INHIBITOR” (Progenity, Inc., priority 2016, published 2019)
